Drawing on US6870056B1, “Substitituted polycyclic aryl and heteroaryl pyridones useful for selective inhibition of the coagulation cascade” (Pharmacia Corporation, priority 1999, dated 2005), this text covers IC50 for 21 compounds.

pIC50: −log10 of the molar value.

Holding throughout (type): biochemical
The target of one experiment is T1, human factor Xa (Homo sapiens, UniProt P00742).
T1 construct: leads from XII to XIIa to XIa to IXa and to the conversion of X to Xa; purchased Enzyme Research Laboratories, South Bend Ind
T1 sequence (P00742 235-488 limits assumed): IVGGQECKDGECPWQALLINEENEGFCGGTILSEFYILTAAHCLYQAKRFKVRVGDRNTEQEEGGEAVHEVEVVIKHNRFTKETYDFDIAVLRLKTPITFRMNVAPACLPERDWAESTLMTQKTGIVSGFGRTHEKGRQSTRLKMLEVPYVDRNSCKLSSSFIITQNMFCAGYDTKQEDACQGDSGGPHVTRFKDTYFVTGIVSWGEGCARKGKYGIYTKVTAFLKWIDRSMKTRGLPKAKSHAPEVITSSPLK
T1 sequence (P00742 41-179 partner limits assumed): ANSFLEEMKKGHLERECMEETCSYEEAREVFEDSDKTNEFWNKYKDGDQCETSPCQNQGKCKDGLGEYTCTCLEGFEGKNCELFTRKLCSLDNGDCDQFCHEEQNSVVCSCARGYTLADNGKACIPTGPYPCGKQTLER
The experiment can be described thus: Xa Assay. Conditions: S-2765 substrate, 60 min, room temperature, pH 8.0. Here is the method:
(§1) 0.3 nM human factor Xa and 0.15 mM N-α-Benzyloxycarbonyl-D-arginyl-L-glycyl-L-arginine-p-nitroaniline-dihydrochloride (S-2765) are added to a 96-well assay plate containing either inhibitor or buffer (50 mM Tris-HCl, pH 8.0, 100 mM NaCl, 0.1% BSA). The reaction, in a final volume of 100 ul is measured immediately at 405 nm to determine background absorbance. The plate is incubated at room temperature for 60 min, at which time the rate of hydrolysis of the substrate is measured by monitoring the reaction at 405 nm for the release of p-nitroaniline. Percent inhibition of Xa activity is calculated from OD405 nm value from the experimental and control sample.
(§2) Recombinant soluble TF, consisting of amino acids 1-219 of the mature protein sequence was expressed in E. coli and purified using a Mono Q Sepharose FPLC. Recombinant human VIIa was purchased from American Diagnostica, Greenwich Conn. and chromogenic substrate N-Methylsulfonyl-D-phe-gly-arg-p-nitroaniline was prepared by American Peptide Company, Inc., Sunnyvale, Calif. Factor Xa was obtained from Enzyme Research Laboratories, South Bend Ind., thrombin from Calbiochem, La Jolla, Calif., and trypsin and L-BAPNA from Sigma, St Louis Mo. The chromogenic substrates S-2765 and S-2238 were purchased from Chromogenix, Sweden.

Experiment [1] concerns the target T2, trypsin, type IX from porcine pancreas (Sus scrofa, UniProt P00761).
T2 construct: purchased Sigma, St Louis Mo. type IX; host or cells: porcine pancreas
Briefly: Trypsin Assay. Conditions: L-BAPNA substrate, 60 min, room temperature, pH 8.0; read-out: Trpysin II ICSO. Here is the method:
5 ug/ml trypsin, type IX from porcine pancreas and 0.375 mM N-α-Benzoyl-L-arginine-p-nitroanilide (L-BAPNA) are added to a 96-well assay plate containing either inhibitor or buffer (50 mM Tris-HCl, pH 8.0, 100 mM NaCl, 0.1% BSA). The reactions, in a final volume of 100 ul are measured immediately at 405 nm to determine background absorbance. The plate is incubated at room temperature for 60 min, at which time the rate of hydrolysis of the substrate is measured by monitoring the reaction at 405 nm for the release of p-nitroaniline. Percent inhibition of trypsin activity is calculated from OD405 nm value from the experimental and control sample.
as §2

For experiment [2], the target named is T3, recombinant soluble tissue factor and recombinant human factor VIIa (TF-VIIa) (Homo sapiens, UniProt P08709).
T3 construct: purchased American Diagnostica, Greenwich Conn; host or cells: soluble TF made in house in E. coli
T3 sequence (P08709 213-466 limits assumed): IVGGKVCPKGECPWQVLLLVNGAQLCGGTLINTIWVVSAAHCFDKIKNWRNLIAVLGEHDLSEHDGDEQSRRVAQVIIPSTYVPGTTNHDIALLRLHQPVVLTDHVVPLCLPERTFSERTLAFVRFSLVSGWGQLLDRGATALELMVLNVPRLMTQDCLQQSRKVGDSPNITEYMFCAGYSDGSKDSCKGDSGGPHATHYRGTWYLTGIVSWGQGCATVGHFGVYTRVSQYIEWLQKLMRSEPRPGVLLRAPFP
T3 sequence (P08709 61-212 partner limits assumed): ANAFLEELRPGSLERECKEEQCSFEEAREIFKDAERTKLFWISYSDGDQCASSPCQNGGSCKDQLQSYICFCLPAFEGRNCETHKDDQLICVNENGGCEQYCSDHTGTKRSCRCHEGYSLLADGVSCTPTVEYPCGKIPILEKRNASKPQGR
T3 sequence (P13726 33-251 partner limits assumed): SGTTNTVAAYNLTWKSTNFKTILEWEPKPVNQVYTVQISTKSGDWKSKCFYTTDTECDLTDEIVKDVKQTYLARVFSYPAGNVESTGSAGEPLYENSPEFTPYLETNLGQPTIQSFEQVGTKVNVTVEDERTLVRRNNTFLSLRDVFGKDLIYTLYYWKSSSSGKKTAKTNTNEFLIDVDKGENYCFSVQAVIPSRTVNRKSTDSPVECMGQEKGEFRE
The experiment can be described thus: TF-VIIa Assay. The conditions noted are these: chromogenic substrate, 60 min, room temperature, pH 8.0. How it is done:
as §1, with “In this assay 100” for “0.3”, “nM recombinant soluble tissue factor and 2 nM recombinant” for “nM”, “VIIa” for “Xa and 0.15 mM N-α-Benzyloxycarbonyl-D-arginyl-L-glycyl-L-arginine-p-nitroaniline-dihydrochloride (S-2765)”, “containing 0.4 mM of the substrate, N-Methylsulfonyl-D-phe-gly-arg-p-nitroaniline and” for “containing”, “(5 mM CaCl2,50” for “(50”, “TF-VIIa” for “Xa”
as §2

A further experiment deals with human thrombin (Homo sapiens, UniProt P00734). The experiment can be described thus: Thrombin Assay. Conditions: chromogenic substrate, 60 min, room temperature, pH 8.0; read-out: Thrombin II IC50. How it is done:
Percent inhibition of thrombin activity is calculated from OD405 nm value from the experimental and control sample.
Recombinant human VIIa was purchased from American Diagnostica, Greenwich Conn. and chromogenic substrate N-Methylsulfonyl-D-phe-gly-arg-p-nitroaniline was prepared by American Peptide Company, Inc., Sunnyvale, Calif. Factor Xa was obtained from Enzyme Research Laboratories, South Bend Ind., thrombin from Calbiochem, La Jolla, Calif., and trypsin and L-BAPNA from Sigma, St Louis Mo.

T2 sequence (P00761 9-231): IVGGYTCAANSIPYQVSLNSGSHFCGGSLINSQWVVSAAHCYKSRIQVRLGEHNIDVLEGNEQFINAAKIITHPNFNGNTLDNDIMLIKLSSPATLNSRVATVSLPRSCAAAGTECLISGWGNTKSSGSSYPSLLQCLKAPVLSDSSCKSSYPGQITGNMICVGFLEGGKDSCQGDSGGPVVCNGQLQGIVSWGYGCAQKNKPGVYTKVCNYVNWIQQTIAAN

As to `N=C(N)NCCC[C@H](NC(=O)Cn1c(=O)c(NS(=O)(=O)Cc2ccccc2)cc2ccccc21)C(=O)c1nccs1` [Example 1], the pIC50 on human factor Xa is 7.15; in experiment [1], 6.68; in experiment [2], 5.34; at human thrombin, 6.15.

For `N=C(N)c1ccc(CNC(=O)Cn2c(=O)c(NS(=O)(=O)Cc3ccccc3)cc3ccccc32)cc1` [Example 2, N-[[4-[(amino)iminomethyl]phenyl]methyll]-2-[3-benzylsulfonyl-amino-2-oxo-2H-quinolin-1-yl]acetamide], the pIC50 against human factor Xa was 5.11; in experiment [1] it was 6.30; in experiment [2], 4.34; at human thrombin, 5.26.

As for `N=C(N)c1ccc(CNC(=O)Cn2c(=O)c(NCCc3ccccc3)cc3ccccc32)cc1` [Example 3], the pIC50 at human factor Xa was less than 4.52; in experiment [1] it was 6.07; in experiment [2], 4.58; on human thrombin, 4.96.

`N=C(N)c1ccc(CNC(=O)Cn2c(=O)c(NS(=O)(=O)c3ccccc3)cc3ccccc32)cc1` [Example 4]: the pIC50 on human factor Xa is 4.64; in experiment [1], 6.32; in experiment [2], less than 4.52; on human thrombin, 4.64.

As to `Nc1ccc(CCNC(=O)Cn2c(=O)c(NS(=O)(=O)Cc3ccccc3)cc3ccccc32)cc1` [Example 6], the pIC50 (against human factor Xa; in experiment [1]; in experiment [2]; on human thrombin) was less than 4.52 throughout.

With `NCCCCNC(=O)Cn1c(=O)c(NS(=O)(=O)Cc2ccccc2)cc2ccccc21` [Example 7], the pIC50 (against human factor Xa; in experiment [1]; in experiment [2]; at human thrombin) was less than 4.52 throughout.

With `NCCCCCNC(=O)Cn1c(=O)c(NS(=O)(=O)Cc2ccccc2)cc2ccccc21` [Example 8], the pIC50 (against human factor Xa; in experiment [1]; in experiment [2]; at human thrombin) was less than 4.52 each time.

Regarding `CN(C)CCCCCCNC(=O)Cn1c(=O)c(NS(=O)(=O)Cc2ccccc2)cc2ccccc21` [Example 9], the pIC50 (on human factor Xa; in experiment [1]; in experiment [2]; on human thrombin) was less than 4.52 throughout.

Consider `NCc1ccc(CNC(=O)Cn2c(=O)c(NS(=O)(=O)Cc3ccccc3)cc3ccccc32)cc1` [Example 10], for which the pIC50 (at human factor Xa; in experiment [1]; in experiment [2]; on human thrombin) was less than 4.52 in each case.

Take `NCc1cccc(CNC(=O)Cn2c(=O)c(NS(=O)(=O)Cc3ccccc3)cc3ccccc32)c1` [Example 11]: the pIC50 (on human factor Xa; in experiment [1]; in experiment [2]; at human thrombin) was less than 4.52 throughout.

With `O=C(Cn1c(=O)c(NS(=O)(=O)Cc2ccccc2)cc2ccccc21)NCCCn1ccnc1` [Example 12], the pIC50 (on human factor Xa; in experiment [1]; in experiment [2]; on human thrombin) was less than 4.52 in each case.

For the compound `O=C(Cn1c(=O)c(NS(=O)(=O)Cc2ccccc2)cc2ccccc21)NCCc1cnc[nH]1` [Example 13], the pIC50 (against human factor Xa; in experiment [1]; in experiment [2]; at human thrombin) was less than 4.52 throughout.

On to `O=C(Cn1c(=O)c(NS(=O)(=O)Cc2ccccc2)cc2ccccc21)NCCc1cccnc1` [Example 14], for which the pIC50 (on human factor Xa; in experiment [1]; in experiment [2]; on human thrombin) was less than 4.52 in each case.

As for `CN1CCC(CCCNC(=O)Cn2c(=O)c(NS(=O)(=O)Cc3ccccc3)cc3ccccc32)CC1` [Example 15], the pIC50 (on human factor Xa; in experiment [1]; in experiment [2]; on human thrombin) was less than 4.52 in each case.

As to `Nc1ccc(CNC(=O)Cn2c(=O)c(NS(=O)(=O)Cc3ccccc3)cc3ccccc32)cc1` [Example 16], the pIC50 (against human factor Xa; in experiment [1]; in experiment [2]; on human thrombin) was less than 4.52 in each case.

Turning to `N=C(N)NCCC[C@H](NC(=O)Cn1c(CCc2ccccc2)ccc(NS(=O)(=O)Cc2ccccc2)c1=O)C(=O)c1nccs1` [Example 17, N-[2(S)-2-[1-Oxo-1-(2-thiazolyl)]-5-[[(amino)iminomethyl]amino]pentyl]-2-[6-(2-phenylethyl)-2-oxo-3-[[(phenylmethyl)sulfonyl]amino]-1(2H)-pyrid-1-yl]acetamide], the pIC50 against human factor Xa was 7.00; in experiment [1], 6.52; in experiment [2], 5.96; at human thrombin, 6.70.

On to `Cc1ccc(NS(=O)(=O)Cc2ccccc2)c(=O)n1CC(=O)N[C@@H](CCCNC(=N)N)C(=O)c1nccs1` [Example 18, N-[2(S)-2-[1-Oxo-1-(2-thiazolyl)]-5-[[(amino)iminomethyl]amino]pentyl]-2-[6-methyl-2-oxo-3-[[(phenylmethyl)sulfonyl]amino]-1(2H)-pyrid-1-yl]acetamide], for which the pIC50 is greater than 5.40 against human factor Xa, 6.70 in experiment [1], 6.10 in experiment [2] and greater than 7.40 at human thrombin.

As for `N=C(N)c1ccc(CNC(=O)Cn2c(CCc3ccccc3)ccc(NS(=O)(=O)Cc3ccccc3)c2=O)cc1` [Example 19, N-[[4-[(amino)iminomethyl]phenyl]methyl)-2-[6-(2-phenylethyl)-2-oxo-3-[[(phenylmethyl)sulfonyl]amino]-1(2H)-pyrid-1-yl]acetamide], the pIC50 was 5.39 against human factor Xa, greater than 7.00 in experiment [1], 4.74 in experiment [2] and 6.40 on human thrombin.

In the case of `Cc1ccc(NS(=O)(=O)Cc2ccccc2)c(=O)n1CC(=O)NCc1ccc(C(=N)N)cc1` [Example 20, N-[(4-[[amino)iminomethyl]phenyl]methyl]-2-[6-methyl-2-oxo-3-[[(phenylmethyl)sulfonyl]amino]-1(2H)-pyrid-1-yl]acetamide], the pIC50 at human factor Xa was 5.24; in experiment [1], 6.30; in experiment [2], 4.64; at human thrombin, 6.52.

Regarding `N=C(N)N1CCC(CNC(=O)Cn2c(CCc3ccccc3)ccc(NS(=O)(=O)Cc3ccccc3)c2=O)CC1` [Example 21], the pIC50 at human factor Xa is 4.77; in experiment [1] it was 6.22; in experiment [2], less than 4.52; on human thrombin it was 6.30.

Consider `Cc1ccc(NS(=O)(=O)Cc2ccccc2)c(=O)n1CC(=O)NCC1CCN(C(=N)N)CC1` [Example 22], for which the pIC50 was 4.95 in experiment [1] and less than 4.52 in experiment [2].
